What was measured:
Format in all cases: cell-based
[1] = system: HIV reverse transcriptase inhibitor resistant strain MT2-010; test: Antiviral activity against reverse transcriptase inhibitor resistant strain MT2-010 in MT2 cells (P24 ELISA); settings: MT2 + MT2-010, positive drug, concentration 1 μM; for Average concentration: P24 ELISA; for Relative concentration(%): vs no-drug control = 100
Procedure: The experimental design of example 4 was the same as that of Example 3, except that the tested strain was a reverse transcriptase inhibitor resistant strain MT2-010, and the infected cells were MT2 cells. Firstly, cell culture and recombinant lentivirus infection: the experimental group SIV-G3L2 or
(§1) SIV-G2N, SIV-EGFP empty vector control group, positive drug control group (Efavirenz, EFV, Shanghai Desano Pharmaceuticals Co., Ltd., Concentration 1 μM), no drug control group (MT2-010 infection, and no recombinant lentivirus drug administration), and a blank control group were set on the 6-well plates. The recombinant lentiviruses were added to the 6-well plates with the multiplicity of infection (MOI) of 125, 250, 500, 1000 and 2000, respectively, and the recombinant lentivirus SIV-EGFP with MOI of 2000 was added as an empty vector control. Mixed and cultured.
Then virus challenge: the MT2 cells were diluted and inoculated in 96-well plates at 1×10^4 cells/well. The reverse transcriptase inhibitor resistant strain MT2-010 was diluted with complete culture medium, and mixed. The virus diluent was added into each well of cells, except for the blank control group. Mixed and cultured. The sampling was performed as described in Example 3, and ELISA detection was performed by using the above-mentioned kit. The OD value was measured with a microplate reader. Then average value, and relative concentration was calculated to determine the antiviral activity of the recombinant lentiviruses against MT2-010 in MT2 cells.

[2] = system: HIV-1 IIIB; test: Antiviral activity of recombinant lentiviruses against HIV-1 IIIB in H9 cells (P24 antigen ELISA); settings: H9 + HIV-1 IIIB, positive drug, concentration 1 μM; for Relative concentration(%): vs no-drug control = 100; for Average concentration of P24: day 7
Procedure: The H9 cells were resuscitated and subcultured in complete medium (RPMI-1640+10% FBS+PS). The cells were resuspended in OPTI-MEM medium, counted and adjusted to a concentration of 5×10^5 cells/ml, and inoculated in 6-well plates with 2 ml per well. The experimental groups SIV-Gag3, SIV-Gag2, SIV-Gag1, SIV-LTR2 or SIV-Nef, SIV-EGFP empty vector control group and blank control group (no HIV-1 IIIB infection, and […]) were set on the 6-well plates. The above recombinant lentiviruses were added to the 6-well plates with the multiplicity of infection (MOI) of 2000, mixed, and cultured at 37° C., 5% CO2 for 24 hours. Each well was supplemented with 4 ml complete medium and cultured at 37° C., 5% CO2 for 72 hours.
(§2) 5 ml of supernatant from each well of 6-well plates was discarded and another 5 ml of fresh complete medium was added. Cells were diluted and inoculated in 96-well plates at 1×10^4 cells/well. 0.5 ml of HIV-1 IIIB was diluted with 5.75 ml of complete medium and mixed. Then 100 μl of virus diluent was added to each well of cells, except for the blank control group, mixed and incubated at 37° C. and 5% CO2. Half volume of liquid was changed on day 2 and day 4 after HIV-1 IIIB infection, respectively. 150 μl of sample was taken from each well on day 7 after infection, sealed and heated at 56° C. for 30 minutes. After the HIV viruses were thermally inactivated, the sample was stored at −20° C., ready for ELISA detection.
HIV-1 P24 antigen detection kit (96T) (Beijing Jinboyi Biotechnology Co., Ltd.) was used for ELISA detection. The OD Value was measured with a microplate reader. Then average value, and relative concentration was calculated to determine the antiviral activity of the recombinant lentiviruses against HIV-1 IIIB in H9 cells.
The H9 cells were resuscitated and subcultured in complete medium (RPMI-1640+10% FBS+PS). The cells were resuspended in OPTI-MEM medium, counted and adjusted to a concentration of 5×10^5 cells/ml, and inoculated in 6-well plates with 2 ml per well. The experimental groups SIV-G3L2, SIV-G2L2, SIV-G1L2, or SIV-G2N, SIV-EGFP empty vector control group, positive drug control group (Efavirenz, EFV, Shanghai Desano Pharmaceuticals Co., Ltd., Concentration 1 μM), no-drug control group (HIV-1 IIIB infection, and no recombinant lentivirus drug administration) and blank control group (no HIV-1 IIIB infection, and no lentivirus drug administration) were set on the 6-well plates. The recombinant lentiviruses were added to the 6-well plates at five doses with the multiplicity of infection (MOI) of 125, 250, 500, 1000, and 2000, and the added volumes were 2.1 μL, 4.2 μL, 8.4 μL, 16.7 μL, 33.3 μL, respectively, with one well for each dose. The recombinant lentivirus SIV-EGFP with MOI of 2000 was added as an empty vector control, the volume was 33.3 μL. Mixed, and cultured at 37° C. and 5% CO2 for 24 hours. Each well was supplemented with 4 ml complete medium and cultured at 37° C., 5% CO2 for 72 hours.
as §2, with “the cells” for “Cells”

[3] = system: HIV protease inhibitor resistant strain MT2-884; test: Antiviral activity against protease inhibitor resistant strain MT2-884 in MT2 cells (P24 ELISA); settings: Table 9, MT2 + MT2-884, positive drug, concentration 1 μM
Procedure: as §1, with “The experimental method of example 5 was the same as Step 1 of Example 3, except that the tested strain was a protease inhibitor resistant strain MT2-884, and the infected cells were MT2 cells. Firstly, cell culture and recombinant lentivirus SIV-G3L2 or SIV-G2N infection: Cells were cultured in 6-well plates, and the experimental group SIV-G3L2 or SIV-G2N,” for “SIV-G2N,”, “(MT2-884” for “(MT2-010”
Then virus challenge: the MT2 cells were diluted and inoculated in 96-well plates at 1×10^4 cells/well. […] The OD value was measured with a microplate reader. then average value, and relative concentration was calculated to determine the antiviral activity of the recombinant lentiviruses against MT2-884 in MT2 cells.

## O=C1Nc2ccc(Cl)cc2[C@@](C#CC2CC2)(C(F)(F)F)O1 [EFV, Efavirenz]
[1]; Table 7
  Average concentration: 52.69
  Relative concentration(%): 0.17%
[1]; Table 8
  Average concentration: 59.36
  Relative concentration(%): 0.21%
[2]; Table 3, P24 ELISA day 7
  Average concentration: 10
[2]; Table 3
  Relative concentration(%): 0.05%
[2]; Table 4
  Average concentration of P24: <10 pg/mL
  Relative concentration(%): 0.05%
[2]; Table 5
  Average concentration of P24: <10 pg/mL
  Relative concentration(%): 0.05%
[2]; Table 6
  Average concentration of P24: <10 pg/mL
  Relative concentration(%): 0.05%
[3]; P24 ELISA
  Average concentration(pg/ml): 50 pg/mL
[3]; vs no-drug control = 100
  Relative concentration(%): 0.51%
